Results published in ChEMBL document CHEMBL1201862, “PubChem BioAssay data set” (2004).
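All cell lines were grown in 96-well plates and treated with compound for 48 hours. GI50 marks 50% less growth.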 Activity calls are given as the source filed them. Rule as the data show it: active = GI50 up to about 1.1 µM and inactive = higher.

What was measured:
Experiment in all cases: NCI tumour cell line growth inhibition, 48 h
MDA-MB-435 = system: MDA-MB-435
SNB-19 = system: SNB-19
UO-31 = system: UO-31
M14 = system: M14
MCF7 = system: MCF7
NCI-H23 = system: NCI-H23
RXF 393 = system: RXF 393
U-251 = system: U-251
SF-295 = system: SF-295
SK-MEL-28 = system: SK-MEL-28
SW-620 = system: SW-620
BT-549 = system: BT-549
SNB-75 = system: SNB-75
OVCAR-5 = system: OVCAR-5
Hs-578T = system: Hs-578T
HCT-116 = system: HCT-116
T47D = system: T47D
MOLT-4 = system: MOLT-4
NCI-H226 = system: NCI-H226
M19-MEL = system: M19-MEL

Measured: GI50

COC(=O)/C(=C/c1ccc(OC)cc1)c1cc(OC)c(OC)c(OC)c1
active: MDA-MB-435 112 nM | M14 1060 nM | MCF7 604 nM | SF-295 706 nM | SW-620 643 nM | Hs-578T 957 nM
inactive: SNB-19 3620 nM | UO-31 5460 nM | NCI-H23 2840 nM | RXF 393 1240 nM | U-251 2000 nM | SK-MEL-28 5890 nM | BT-549 34000 nM | SNB-75 1290 nM | OVCAR-5 14900 nM | HCT-116 2160 nM | T47D 7130 nM | MOLT-4 1440 nM | NCI-H226 6550 nM | M19-MEL 3460 nM
